Our source for the IC50 values is patent US12351570B2 (MERCK PATENT GMBH, priority 2018, dated 2025).

The experiment has as its system MDA-MB-231 cells. The experiment can be described thus: Extracellular lactate production inhibition after 4 h, MDA-MB-231. The note with it: Homo sapiens, MDA-MB-231.
The molecule `O=C(O)c1ccc(C#Cc2ccccc2NS(=O)(=O)c2c(Br)ccc3c(Cl)ccnc23)cn1` [Compound 319, 5-{2-[2-(7-bromo-4-chloroquinoline-8-sulfonamido)phenyl]ethynyl}pyridine-2-carboxylic acid] showed an IC50 of 10 to 100 nM.
The value for `CN(C)c1ccnc2c(S(=O)(=O)Nc3ccccc3C#Cc3ccc(C(=O)O)nc3)cccc12` [Compound 420, 5-[2-(4-Dimethylamino-quinoline-8-sulfonylamino)-phenylethynyl]-pyridine-2-carboxylic acid] was 1000 to 100000 nM; that for `COc1ccc(S(=O)(=O)Nc2ccc(C)cc2C#Cc2ccc(C(=O)O)nc2)c2ncccc12` [Compound 383, 5-[2-(5-Methoxy-quinoline-8-sulfonylamino)-5-methyl-phenylethynyl]-pyridine-2-carboxylic acid] was 1 to 10 nM; that for `Cc1ccc2cccnc2c1S(=O)(=O)Nc1ccccc1C#Cc1ccc(C(=O)OCC(O)CO)nc1` (centres unmarked) [Compound 396, 2,3-dihydroxypropyl 5-{2-[2-(7-methylquinoline-8-sulfonamido)phenyl]ethynyl}pyridine-2-carboxylate] was 1 to 10 nM.
`O=C(O)c1ccc(C#Cc2ccccc2NS(=O)(=O)c2cc3ccccc3o2)cn1` [Compound 89, 5-{2-[2-(1-benzofuran-2-sulfonamido)phenyl]ethynyl}pyridine-2-carboxylic acid] gave an IC50 of 1000 to 100000 nM.
As to `O=C(O)c1ccc(C#Cc2ccccc2NS(=O)(=O)c2cccc3nsnc23)cn1` [Compound 292, 5-{2-[2-(2,1,3-benzothiadiazole-4-sulfonamido)phenyl]ethynyl}pyridine-2-carboxylic acid], the IC50 lay in the range of 1000 to 100000 nM.
With `COc1ccc(S(=O)(=O)Nc2ccccc2C#Cc2ccc(C(=O)O)c(F)c2)c2ccccc12` [Compound 45, 2-fluoro-4-{2-[2-(4-methoxynaphthalene-1-sulfonamido)phenyl]ethynyl}benzoic acid], the IC50 was in the range of 100 to 1000 nM.
The value for `O=C(O)c1ccc(C#Cc2ccccc2C[S+]([O-])c2ccc3ccccc3c2)cc1` (centres unmarked) [Compound 20, 4-(2-{2-[(naphthalene-2-sulfinyl)methyl]phenyl}ethynyl)benzoic acid] was 1000 to 100000 nM; that for `CS(=O)(=Nc1ccccc1C#Cc1ccc(C(=O)O)nc1)c1ccccc1F` (centres unmarked) [Compound 437, 5-[2-(2-{[(2-fluorophenyl)(methyl)oxo-λ6-sulfanylidene]amino}phenyl)ethynyl] pyridine-2-carboxylic acid] was 1000 to 100000 nM.
In turn, `Cc1nc(C(=O)O)ccc1C#Cc1ccccc1NS(=O)(=O)c1cccc2cccnc12` [Compound 60, 6-methyl-5-{2-[2-(quinoline-8-sulfonamido)phenyl]ethynyl}pyridine-2-carboxylic acid] returned an IC50 of 1000 to 100000 nM.
For `COCCOCCOc1ccnc2c(S(=O)(=O)Nc3ccccc3C#Cc3ccc(C(=O)O)nc3)cccc12` [Compound 330, 5-[2-(2-{4-[2-(2-methoxyethoxy)-ethoxy]quinoline-8-sulfonamido}-phenyl)ethynyl]pyridine-2-carboxylic acid] the value was 1000 to 100000 nM.
For `O=C(O)c1ccc(C#Cc2ccccc2NS(=O)(=O)c2cccn3ccnc23)cn1` [Compound 278, 5-[2-(Imidazo[1,2-a]pyridine-8-sulfonyl-amino)-phenylethynyl]-pyridine-2-carboxylic acid] the value was 1000 to 100000 nM.
With `COCC(=O)Nc1ccc(C#Cc2ccc(C(=O)O)nc2)c(NS(=O)(=O)c2ccc(OC)c3cccnc23)c1` [Compound 173, 5-{2-[4-(2-methoxyacetamido)-2-(5-methoxyquinoline-8-sulfonamido)phenyl]ethynyl}pyridine-2-carboxylic acid], the IC50 was in the range of 1000 to 100000 nM.
Take `COc1cnc2cc(S(=O)(=O)Nc3ccccc3C#Cc3ccc(C(=O)O)nc3)ccc2n1` [Compound 91, 5-{2-[2-(2-methoxyquinoxaline-6-sulfonamido)phenyl]ethynyl}pyridine-2-carboxylic acid]: the IC50 was in the range of 1000 to 100000 nM.
